# Data published in ChEMBL document CHEMBL4007403, “Identification of Triazolothiadiazoles as Potent Inhibitors of the dCTP Pyrophosphatase 1” (J Med Chem, 2017).
# Key:
# dCTP pyrophosphatase 1 = biological target: T1, dCTP pyrophosphatase 1 (Homo sapiens, UniProt Q9H773); test: Inhibition of recombinant human N-terminal His-tagged dCTPase 1 expressed in Escherichia coli BL21(DE3)pLysS using dCTP as substrate after 1 hr by malachite green reagent based assay
# T1 sequence (Q9H773 whole entry): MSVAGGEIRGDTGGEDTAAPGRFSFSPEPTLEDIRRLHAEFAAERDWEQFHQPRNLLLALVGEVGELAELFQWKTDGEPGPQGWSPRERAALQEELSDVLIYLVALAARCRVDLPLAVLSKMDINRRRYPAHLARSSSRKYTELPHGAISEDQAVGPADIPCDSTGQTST
# [1] = Stability of the compound in biochemical assay buffer under basic mobile phase conditions by HPLC-MS analysis; type: physicochemical
# [2] = Stability of the compound in biochemical assay buffer under mildly acidic mobile phase conditions by HPLC-MS analysis; type: physicochemical
# [3] = Stability of the compound in DMSO measured after several months by HPLC-MS analysis; type: physicochemical
# [4] = Hepatic extraction ratio in human liver microsomes up to 100 uM preincubated for 10 mins followed by NADPH addition by UPLC-MS analysis; type: ADME, microsome; conditions: read-out: ERH
# [5] = Hepatic extraction ratio in mouse liver microsomes up to 100 uM preincubated for 10 mins followed by NADPH addition by UPLC-MS analysis; type: ADME, microsome; conditions: read-out: ERH
# [6] = Kinetic solubility of the compound; type: physicochemical; conditions: read-out: Kinetic_solubility
# [7] = Half life in mouse liver microsomes up to 100 uM preincubated for 10 mins followed by NADPH addition by UPLC-MS analysis; type: ADME, microsome
# [8] = Half life in human liver microsomes up to 100 uM preincubated for 10 mins followed by NADPH addition by UPLC-MS analysis; type: ADME, microsome
SMILES,IC50 (dCTP pyrophosphatase 1),Stability [1],Stability [2],Stability [3],hepatic extraction ratio [4],hepatic extraction ratio [5],solubility kinetic [6],half-life [7],half-life [8]
CN(C)c1ccc(-c2nn3c(-c4ccccn4)nnc3s2)cc1,291 nM,Stable,Stable,Stable,,,,,
CCOc1ccc(-c2nn3c(-c4ccccn4)nnc3s2)cc1OCC,1170 nM,Stable,Stable,Stable,,,,,
c1csc(-c2nnc3sc(-c4cnccn4)nn23)c1,170 nM,Stable,Stable,Stable,0.89,0.99,30 µM,1 min,6 min
COc1ccc(-c2nn3c(-c4ccccc4F)nnc3s2)cc1,208 nM,Stable,Stable,Stable,,,,,
CCCc1nnc2sc(-c3cccc(OC)c3)nn12,7460 nM,Stable,Stable,Stable,,,,,
c1ccc(-c2nn3c(-c4ccco4)nnc3s2)cc1,592 nM,Stable,Stable,Stable,,,,,
c1ccc(-c2nnc3sc(-c4ccc5ccccc5c4)nn23)nc1,95 nM,Stable,Stable,Stable,,,,,
Clc1ccc(/C=C/Cc2nn3c(-c4ccccn4)nnc3s2)cc1,220 nM,Stable,Stable,Stable,,,,,
c1ccc(-c2nnc3sc(-c4cc5ccccc5o4)nn23)nc1,401 nM,Stable,Stable,Stable,,,,,
C(=C\c1cccnc1)/Cc1nn2c(-c3ccccc3)nnc2s1,558 nM,Stable,Stable,Stable,,,,,
C=CCOc1ccc(-c2nn3c(-c4ccccn4)nnc3s2)cc1,1210 nM,Stable,Stable,Stable,,,,,
CCOc1ccc(-c2nn3c(-c4ccccn4)nnc3s2)cc1,449 nM,Stable,Stable,Stable,,,,,
Clc1ccccc1-c1nn2c(-c3ccccn3)nnc2s1,440 nM,Stable,Stable,Stable,,,,,
COc1cc(OC)cc(-c2nn3c(-c4ccccn4)nnc3s2)c1,276 nM,Stable,Stable,Stable,,,,,
CCc1cc(-c2nnc3sc(-c4ccccc4)nn23)n(C)n1,> 10000 nM,Stable,Stable,Stable,,,,,
c1coc(-c2nnc3sc(-c4ccc5ccccc5n4)nn23)c1,177 nM,Stable,Stable,Stable,,,,,
C(=C\c1cccnc1)/Cc1nn2c(-c3ccco3)nnc2s1,453 nM,Stable,Stable,Stable,,,,,
Fc1cccc(-c2nn3c(-c4ccccn4)nnc3s2)c1,357 nM,Stable,Stable,Stable,,,,,
c1ccc(-c2nnc3sc(-c4cccnc4)nn23)nc1,233 nM,Stable,Stable,Stable,,,,,
Cc1ccccc1-c1nn2c(-c3ccccn3)nnc2s1,505 to 746 nM,Stable,Stable,Stable,,,,,
Ic1ccccc1-c1nn2c(-c3ccccn3)nnc2s1,505 nM,Stable,Stable,Stable,,,,,
c1coc(-c2nnc3sc(-c4csc5c4CCCC5)nn23)c1,144 nM,Stable,Stable,Stable,,,,,
Brc1ccc(-c2nn3c(-c4ccccn4)nnc3s2)cc1,164 nM,Stable,Stable,Stable,,,,,
COc1cccc(-c2nn3c(-c4ccccn4)nnc3s2)c1,1880 nM,Stable,Stable,Stable,,,,,
Clc1cccc(-c2nn3c(-c4ccccn4)nnc3s2)c1,271 nM,Stable,Stable,Stable,,,,,
COc1ccc(-c2nn3c(-c4cccnc4)nnc3s2)cc1,2610 nM,Stable,Stable,Stable,,,,,

# Second part, the compound after the results:
IC50 (dCTP pyrophosphatase 1),Stability [1],Stability [2],Stability [3],hepatic extraction ratio [4],hepatic extraction ratio [5],solubility kinetic [6],half-life [7],half-life [8],SMILES
332 nM,Stable,Stable,Stable,,,,,,Fc1ccc(-c2nn3c(-c4ccccn4)nnc3s2)cc1
6970 nM,Stable,Stable,Stable,,,,,,CCCc1nnc2sc(-c3ccc(OC)cc3)nn12
328 nM,Stable,Stable,Stable,,,,,,Brc1ccccc1-c1nn2c(-c3ccccn3)nnc2s1
314 nM,Stable,Stable,Stable,,,,,,Cc1cc(-c2nn3c(-c4ccccn4)nnc3s2)c2ccccc2n1
619 nM,Stable,Stable,Stable,,,,,,c1ccc(-c2nn3c(-c4ccccn4)nnc3s2)cc1
449 nM,Stable,Stable,Stable,,,,,,Cc1cccc(-c2nn3c(-c4ccccn4)nnc3s2)c1
5610 nM,Stable,Stable,Stable,,,,,,CCCCc1nnc2sc(-c3cc(C)nc4ccccc34)nn12
277 nM,Stable,Stable,Stable,,,,,,CN(C)c1cccc(-c2nn3c(-c4ccccn4)nnc3s2)c1
204 nM,Stable,Stable,Stable,,,,,,Clc1ccc(-c2nn3c(-c4ccccn4)nnc3s2)cc1
469 nM,Stable,Stable,Stable,,,,,,Cc1ccc(-c2nn3c(-c4ccccn4)nnc3s2)cc1
2060 nM,Stable,Stable,Stable,,,,,,CCCCc1nnc2sc(-c3cccc(OC)c3)nn12
419 nM,Stable,Stable,Stable,,,,,,Clc1ccc(-c2nn3c(-c4ccccn4)nnc3s2)c(Cl)c1
1030 nM,Stable,Stable,Stable,,,,,,COc1ccccc1-c1nn2c(-c3ccccn3)nnc2s1
1030 nM,Stable,Stable,Stable,,,,,,Cc1onc(-c2cccs2)c1-c1nn2c(-c3ccco3)nnc2s1
227 nM,Stable,Stable,Stable,,,,,,Cc1ccc(-c2nn3c(-c4ccccn4)nnc3s2)cc1C
204 nM,Stable,Stable,Stable,,,,,,c1ccc(-c2nnc3sc(-c4cccc5ccccc45)nn23)nc1
670 nM,Stable,Stable,Stable,,,,,,Fc1ccccc1-c1nn2c(-c3ccccn3)nnc2s1
691 nM,Stable,Stable,Stable,,,,,,Cc1ccccc1-c1nn2c(-c3cnccn3)nnc2s1
410 nM,Stable,Stable,Stable,,,,,,Fc1ccccc1-c1nnc2sc(-c3ccccc3)nn12
1020 nM,Stable,Stable,Stable,,,,,,COc1cccc(-c2nnc3sc(-c4ccncc4)nn23)c1
> 10000 nM,Stable,Stable,Stable,,,,,,COc1cccc(-c2nn3c(-c4ccncc4)nnc3s2)c1
602 nM,Stable,Stable,Stable,,,,,,Brc1cccc(-c2nn3c(-c4ccccn4)nnc3s2)c1
282 to 316 nM,Stable,Stable,Stable,,,,,,COc1ccc(-c2nn3c(-c4ccccn4)nnc3s2)cc1
704 nM,Stable,Stable,Stable,,,,,,c1coc(-c2nnc3sc(-c4cccs4)nn23)c1
346 nM,Stable,Stable,Stable,,,,,,CCc1noc(C)c1-c1nn2c(-c3cccs3)nnc2s1
1370 nM,Stable,Stable,Stable,,,,,,c1ccc(CCCCc2nn3c(-c4ccccn4)nnc3s2)cc1
